Measurements: US20120029040A1, “ANIMAL ECTOPARASITE-CONTROLLING AGENT” (priority 2010, published 2012)

How the values were obtained:
[1] = system: ticks (Haemaphysalis longicornis); assay: Pesticidal activity on ticks in filter paper test; conditions: 48 h, 100 mg/m^2, non-blood-fed young ticks, 2 days
Procedure: Pesticidal Activity on Ticks (Haemaphysalis longicornis) in Filter Paper Test
Each (5 mg) of the present hydrazide compounds (1) and (2) was dissolved in acetone (10 mL), and this acetone solution (1 mL) was uniformly applied onto one side of a filter paper (TOYO No. 2; 5×10 cm; the surface area of the filter paper was 50 cm^2, and thus the amount of the present hydrazide compound applied was 100 mg/m^2). After drying, said filter paper was folded, and the both sides of the paper were clipped to form a bag. Into this bag, test ticks (Haemaphysalis longicornis, non-blood-fed young ticks, 10 ticks/group) were added, and the opening was clipped to seal the bag. Two (2) days later, the number of dead ticks was examined and the mortality was calculated by the following formula:
Mortality (%)=100×(number of dead ticks/number of ticks tested)

[2] = system: cat fleas (Ctenocephalides felis); assay: Oral administration against cat-infested cat fleas; format: in vivo; conditions: oral with cat food, dose 20 mg/kg
Procedure: Oral Administration Against Cat-Infested Cat Fleas (Ctenocephalides felis)
Each of the present hydrazide compound (1) and Comparative compound (52) was mixed with a cat food, and orally administered to a cat in a dose amount of 20 mg per 1 kg of the cat's body weight. This is referred to as a test group. On the other hand, the cat food alone was fed to a placebo group.
(§1) Forty two (42) days later, 50 test fleas were deposited on each cat. Two (2) days after the deposit, the number of living fleas, which were infesting the cats, was examined. When the examination was completed, all infested fleas were removed from the cats. The infestation rate and control rate were calculated by the following formulae: […]
Method of calculating infestation rate and control rate at 44 days after the administration:
Infestation rate (%) at X days after administration=(number of living fleas at X days/number of fleas deposited)×100
Control rate (%) at X days after administration=(infestation rate of placebo group at X days−infestation rate of test group at X days)/infestation rate of placebo group at X days×100
(§2) In addition, if an infestation rate of a test group is higher than a placebo group, then the control rate is deemed to be 0%.

[3] = system: ticks (Haemaphysalis longicornis); assay: Dropping application against dog-infested ticks; format: in vivo
Procedure: Dropping Application Against Dog-Infested Ticks (Haemaphysalis longicornis)
(§3) Each (0.375 or 1.5 g) of the present hydrazide compound (1) and Comparative compound (52) was dissolved in diethylene glycol monoethyl ether (6.0 g) to prepare a test solution. Said test solution was directly dropped on the skin of the neck and back of the dog while pushing aside fur thereon at a rate of 0.1 ml per 1 kg of the dog's body weight (dose amount: 5 or 20 mg/kg). This is referred to as a test group. On the other hand, diethylene glycol monoethyl ether alone was applied dropwise to a placebo group.
Twenty eight (28) days later, 100 test ticks were deposited on each dog. Two (2) days after the deposit, the number of living ticks, which were infesting the dogs, was examined. When the examination was completed, all infested ticks were removed from the dogs. The infestation rate and control rate were calculated by the following formulae: […]
Method of calculating infestation rate and control rate at 30 days after the application:
Infestation rate (%) at X days after application=(number of living ticks at X days/number of ticks deposited)×100
(§4) Control rate (%) at X days after application=(infestation rate of placebo group at X days−infestation rate of test group at X days)/infestation rate of placebo group at X days×100
as §2

[4] = system: cat fleas (Ctenocephalides felis); assay: Dropping application against cat-infested cat fleas; format: in vivo
Procedure: Dropping Application Against Cat-Infested Cat Fleas (Ctenocephalides felis)
The previous day before dropping application, 50 test fleas (cat flea adults) were deposited on a cat. Before the dropping application, infested fleas were counted.
as §3, with “Each (0.75” for “Each (0.375”, “the cat” for “the dog”, “thereon on” for “thereon”, “the cat's” for “the dog's”, “amount: 10” for “amount: 5”
Two (2) days after the application, the number of living fleas, which were infesting the cats, was examined. When the examination was completed, all infested fleas were removed from the cats.
as §1, with “Twenty eight (28)” for “Forty two (42)”, “re-deposited” for “deposited”, “re-deposit,” for “deposit,”
(i) Method of calculating infestation rate and control rate at the initial stage (2 days) after the application:
Infestation rate (%) at X days after application=(number of living fleas at X days/number of living fleas before application)×100
Control rate (%) at X days after application=(infestation rate of test group before application−infestation rate of test group at X days)/infestation rate of test group before application×100
(ii) Method of calculating infestation rate and control rate at 30 days after the application:
Infestation rate (%) at X days after application=(number of living fleas at X days/number of fleas deposited)×100
as §4, §2

[5] = system: ticks (Haemaphysalis longicornis); assay: Dropping application against mouse-infested ticks; format: in vivo; conditions: 0.1% w/v solution 200 μL dropwise to whole body surface, 2 days after application
Procedure: Dropping Application Against Mouse-Infested Ticks (Haemaphysalis longicornis)
The previous day before dropping application, 30 test ticks (Haemaphysalis longicornis, young ticks) were deposited on a mouse. Before the dropping application, uninfested ticks were removed.
The present hydrazide compound (1) (5 mg) was dissolved in a mixture (5 mL) of propylene carbonate and diethylene glycol monoethyl ether in equal amounts to prepare a 0.1% w/v solution. Said solution (200 μL) was applied dropwise to the whole body surface of a mouse with a pipette. To a control group, the mixture (200 μL) alone was applied. Each application was repeated 3 times per group.
Two (2) days after the application, the number of dead ticks was examined and the mortality was calculated by the following formula:
Mortality (%)=100×(number of dead ticks/infested ticks before dropping application)

[6] = system: cat fleas (Ctenocephalides felis); assay: Oral administration against mouse-infested cat fleas; format: in vivo; conditions: 20 mg in 10 mL test solution at 10 mL per 1 kg body weight, fleas deposited after administration, 2 days later
Procedure: Oral Administration Against Mouse-Infested Cat Fleas (Ctenocephalides Felis)
(§5) The present hydrazide compound (1) (20 mg) was dissolved in dimethylformamide (680 mg), and thereto a corn oil was added to prepare a test solution (10 mL). Said test solution was orally administered to the mouse at a rate of 10 mL per 1 kg of the body weight of the mouse with a gastric sonde. To a control group, a 7% dimethylformamide/corn oil solution alone was orally administered. Each administration was repeated 3 times per group.
After the oral administration, 20 cat fleas were deposited on each mouse. Two (2) days later, the number of cat fleas was examined and the mortality was calculated by the following formula:
Mortality (%)=100×(number of dead cat fleas/number of cat fleas tested)

[7] = system: ticks (Haemaphysalis longicornis); assay: Oral administration against mouse-infested ticks; format: in vivo; conditions: 20 mg in 10 mL test solution at 10 mL per 1 kg body weight, 2 days after administration
Procedure: Oral Administration Against Mouse-Infested Ticks (Haemaphysalis longicornis)
The previous day before oral administration, 30 test ticks (Haemaphysalis longicornis, young ticks) were deposited on a mouse. Before the oral administration, uninfested ticks were removed.
as §5, with “at the” for “at a”
Two (2) days after the administration, the number of dead ticks was examined and the mortality was calculated by the following formula:
Mortality (%)=100×(number of dead ticks/infested ticks before oral administration)

[8] = system: ticks (Haemaphysalis longicornis); assay: Oral administration against dog-infested ticks; format: in vivo; conditions: dog (beagle), oral gelatin capsules
Procedure: Oral Administration Against Dog-Infested Ticks (Haemaphysalis longicornis)
The previous day before oral administration, 100 test ticks (Haemaphysalis longicornis, young ticks) were deposited on a dog (beagle). Before the oral administration, infested ticks were counted.
Each of the present hydrazide compound (1) and Comparative compound (52) was filled into gelatin capsules, and forcibly and orally administered to a dog in a dose amount of 5 mg or 20 mg per 1 kg of the dog's body weight. This is referred to as a test group. On the other hand, gelatin capsules alone was orally administered to a placebo group.
Two (2) days after the administration, the number of living ticks, which were infesting the dogs, was examined.
When the examination was completed, all infested ticks were removed from the dogs. The infestation rate and control rate were calculated by the following formulae: […]
Method of calculating infestation rate and control rate at the initial stage (2 days) after the administration:
Infestation rate (%) at X days after administration=(number of living ticks at X days/number of living ticks before administration)×100
Control rate (%) at X days after administration (infestation rate of test group before administration−infestation rate of test group at X days)/infestation rate of test group before administration×100
as §2

SMILES	mortality at 100 mg/m2 [1]	Flea control rates (%) at 44 days after the administration [2]	Tick control rates (%) at 30 days after the application ([3]; dose 5 mg/kg)	Tick control rates (%) at 30 days after the application ([3]; dose 20 mg/kg)	Flea control rates (%) at 2 days after the application ([4]; dose 10 mg/kg)	Flea control rates (%) at 30 days after the application ([4]; dose 10 mg/kg)	Flea control rates (%) at 2 days after the application ([4]; dose 20 mg/kg)	Flea control rates (%) at 30 days after the application ([4]; dose 20 mg/kg)	Mortality [5]	Mortality [6]	Mortality [7]	Tick control rates (%) at 2 days after the application ([8]; dose 5 mg/kg)	Tick control rates (%) at 2 days after the application ([8]; dose 20 mg/kg)
CN(NC(=O)C1CC1)c1cc(C2=NOC(c3cc(Cl)cc(Cl)c3)(C(F)(F)F)C2)ccc1Cl (stereo not drawn) [(2), N′-methyl-N′-{2-chloro-5-[5-(3,5-dichlorophenyl)-5-trifluoromethyl-4,5-dihydroisoxazol-3-yl]phenyl}cyclopropanecarbohydrazide]	≥ 90%	–	–	–	–	–	–	–	–	–	–	–	–
O=C(NNc1cc(C2=NOC(c3cc(Cl)cc(Cl)c3)(C(F)(F)F)C2)ccc1Cl)C1CC1 (stereo not drawn) [Compound (1), N′-{2-chloro-5-[5-(3,5-dichlorophenyl)-5-trifluoromethyl-4,5-dihydroisoxazol-3-yl]phenyl}cyclopropanecarbohydrazide]	–	94%	100%	100%	92%	84%	96%	94%	≥ 70%	≥ 90%	≥ 90%	100%	100%
CC(=O)NNc1cc(C2=NOC(c3cc(Cl)cc(Cl)c3)(C(F)(F)F)C2)ccc1Cl (stereo not drawn) [Comparative compound (52), N′-{5-[5-(3,5-dichlorophenyl)-5-trifluoromethyl-4,5-dihydroisoxazol-3-yl]-2-chlorophenyl}acetohydrazide, reference compound]	–	68%	29%	–	58%	74%	–	–	–	–	–	26%	–
